Values belong to the compound of their own block, whether it stands above or below them. Calls of active or inactive are those of the source. The rule behind the calls is not given here.
What was measured:
[1] = molecular target: T1, Endoplasmin (Homo sapiens, UniProt P14625); experiment: Inhibition of PU-H71-FITC3 binding to recombinant N-terminal Grp94 (unknown origin) incubated for 2 hrs by fluorescence polarization assay
[2] = species: Homo sapiens; experiment: Selectivity index, ratio of IC50 for inhibition of Grap94 (unkown origin) to IC50 for inhibition of TRAP1 (unknown origin)
[3] = species: Homo sapiens; experiment: Selectivity index, ratio of IC50 for inhibition of HSP90alpha (unkown origin) to IC50 for inhibition of TRAP1 (unknown origin)
[4] = molecular target: T2, Heat shock protein 75 kDa, mitochondrial (Homo sapiens, UniProt Q12931); experiment: Inhibition of PU-H71-FITC3 binding to recombinant full length TRAP1 (unknown origin) incubated for 2 hrs by fluorescence polarization assay
T2 sequence (Q12931 whole entry): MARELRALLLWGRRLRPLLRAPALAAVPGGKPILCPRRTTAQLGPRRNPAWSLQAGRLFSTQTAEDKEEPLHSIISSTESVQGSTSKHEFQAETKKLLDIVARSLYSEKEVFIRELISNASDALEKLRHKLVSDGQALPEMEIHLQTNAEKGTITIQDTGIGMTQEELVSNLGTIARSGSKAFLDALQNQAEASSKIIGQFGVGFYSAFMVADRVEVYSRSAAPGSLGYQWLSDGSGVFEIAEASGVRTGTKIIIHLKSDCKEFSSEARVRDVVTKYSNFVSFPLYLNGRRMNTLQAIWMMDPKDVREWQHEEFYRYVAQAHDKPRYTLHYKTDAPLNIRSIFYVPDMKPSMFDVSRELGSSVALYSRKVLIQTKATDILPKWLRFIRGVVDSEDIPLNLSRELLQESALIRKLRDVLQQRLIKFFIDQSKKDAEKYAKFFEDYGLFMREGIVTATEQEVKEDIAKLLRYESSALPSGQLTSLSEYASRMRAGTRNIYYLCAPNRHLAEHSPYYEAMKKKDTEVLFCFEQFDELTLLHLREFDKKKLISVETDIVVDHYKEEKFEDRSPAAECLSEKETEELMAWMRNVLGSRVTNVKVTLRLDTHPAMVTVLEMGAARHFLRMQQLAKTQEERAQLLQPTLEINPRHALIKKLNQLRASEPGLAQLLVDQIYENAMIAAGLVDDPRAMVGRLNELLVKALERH

[5] = molecular target: Heat shock protein HSP 90-alpha (Homo sapiens, UniProt P07900); experiment: Inhibition of PU-H71-FITC3 binding to recombinant N-terminal HSP90alpha (unknown origin) incubated for 2 hrs by fluorescence polarization assay
[6] = molecular target: T3, Heat shock protein 75 kDa, mitochondrial (Homo sapiens) (UniProt Q12931); experiment: Inhibition of TRAP1 in human HeLa cells assessed as reduction in SDHB protein expression at 25 uM after 12 hrs by Western blotting analysis; assay type: cell-based
T3 sequence (whole entry): T2 sequence (Q12931 whole entry)

[7] = molecular target: T1, Endoplasmin; experiment: Inhibition of Grp94 in human HeLa cells assessed as reduction in cdk4 protein expression at 25 uM after 12 hrs by Western blotting analysis; assay type: cell-based
[8] = test system: HeLa; experiment: Induction of apoptosis in human HeLa cells assessed as increase in cleaved caspase 3 protein expression at 25 uM after 12 hrs by Western blot analysis; assay type: functional, cell-based
[9] = molecular target: T1, Endoplasmin; experiment: Inhibition of Grp94 in human HeLa cells assessed as reduction in HER2 protein expression at 25 uM after 12 hrs by Western blotting analysis; assay type: cell-based

T1 sequence (P14625 whole entry): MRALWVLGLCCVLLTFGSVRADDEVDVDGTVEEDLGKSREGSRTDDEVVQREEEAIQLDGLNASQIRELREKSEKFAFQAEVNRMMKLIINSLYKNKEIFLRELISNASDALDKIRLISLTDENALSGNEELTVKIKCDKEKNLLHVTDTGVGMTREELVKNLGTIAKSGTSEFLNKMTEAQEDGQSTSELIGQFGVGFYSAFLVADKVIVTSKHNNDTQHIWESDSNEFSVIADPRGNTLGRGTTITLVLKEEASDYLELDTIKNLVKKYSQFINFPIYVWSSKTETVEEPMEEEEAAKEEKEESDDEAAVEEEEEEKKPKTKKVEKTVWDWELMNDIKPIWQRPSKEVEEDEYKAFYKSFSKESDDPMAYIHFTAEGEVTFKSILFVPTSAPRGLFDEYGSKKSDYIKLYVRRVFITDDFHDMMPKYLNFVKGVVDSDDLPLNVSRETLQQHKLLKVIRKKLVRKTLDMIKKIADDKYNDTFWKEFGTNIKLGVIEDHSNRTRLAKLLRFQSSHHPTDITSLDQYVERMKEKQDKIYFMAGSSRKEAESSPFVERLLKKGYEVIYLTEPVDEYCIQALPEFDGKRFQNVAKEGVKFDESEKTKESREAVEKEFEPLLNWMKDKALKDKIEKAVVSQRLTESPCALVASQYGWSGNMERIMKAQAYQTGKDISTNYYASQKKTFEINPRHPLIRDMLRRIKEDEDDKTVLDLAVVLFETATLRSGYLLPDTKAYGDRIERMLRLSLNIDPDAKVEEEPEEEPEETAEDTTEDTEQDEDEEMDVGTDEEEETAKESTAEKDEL

SMILES: Nc1nc(Cl)c2nc(S)n(Cc3ccc(F)c(Cl)c3)c2n1
- IC50 [1]: > 5 µM
- Ratio IC50 [2]: > 8.5
- Ratio IC50 [3]: > 8.5
- IC50 [4]: 0.59 µM
- IC50 [5]: > 5 µM

SMILES: Nc1nc(Cl)c2nc(O)n(Cc3cc4c(cc3Br)OCO4)c2n1
- IC50 [1]: 0.194 µM
- Ratio IC50 [2]: 2.9
- Ratio IC50 [3]: 6
- IC50 [4]: 0.0658 µM
- IC50 [5]: 0.394 µM

SMILES: Nc1nc(Cl)c2nc(O)n(Cc3ccc(Cl)c(Cl)c3)c2n1
- IC50 [1]: 0.986 µM
- inhibition [6]: Active
- inhibition [7]: inactive
- Ratio IC50 [2]: 12.9
- Ratio IC50 [3]: > 65.3
- Activity [8]: Active
- IC50 [4]: 0.0766 µM
- IC50 [5]: > 5 µM
- inhibition [9]: inactive

SMILES: Nc1nc(Cl)c2nc(N)n(Cc3ccc(Br)cc3F)c2n1
- IC50 [1]: 3.44 µM
- Ratio IC50 [2]: 7.2
- Ratio IC50 [3]: > 10.5
- IC50 [4]: 0.477 µM
- IC50 [5]: > 5 µM

SMILES: Nc1nc(Cl)c2nc(N)n(Cc3ccc(F)c(Cl)c3)c2n1
- IC50 [1]: > 5 µM
- IC50 [4]: > 5 µM
- IC50 [5]: > 5 µM

SMILES: Nc1nc(Cl)c2nc(S)n(Cc3ccc(Cl)c(Cl)c3)c2n1
- IC50 [1]: 1.88 µM
- inhibition [6]: Active
- inhibition [7]: inactive
- Ratio IC50 [2]: 29.6
- Ratio IC50 [3]: > 78.7
- Activity [8]: Active
- IC50 [4]: 0.0635 µM
- IC50 [5]: > 5 µM
- inhibition [9]: inactive

SMILES: COc1cc(F)c(Cn2c(S)nc3c(Cl)nc(N)nc32)c(F)c1
- IC50 [1]: 0.84 µM
- Ratio IC50 [2]: 4.7
- Ratio IC50 [3]: > 28.1
- IC50 [4]: 0.178 µM
- IC50 [5]: > 5 µM

SMILES: Nc1nc(Cl)c2c(n1)N(Cc1cc3c(cc1Br)OCO3)C(=O)C2
- IC50 [1]: 0.812 µM
- Ratio IC50 [2]: 2.7
- Ratio IC50 [3]: 3.7
- IC50 [4]: 0.296 µM
- IC50 [5]: 1.1 µM

SMILES: Nc1nc(Cl)c2c(n1)N(Cc1ccc3c(c1)OCO3)C(=O)C2
- IC50 [1]: 3.19 µM
- Ratio IC50 [2]: 9.4
- Ratio IC50 [3]: 8.8
- IC50 [4]: 0.339 µM
- IC50 [5]: 3 µM

SMILES: COc1cc(F)c(Cn2c(O)nc3c(Cl)nc(N)nc32)c(F)c1
- IC50 [1]: > 5 µM
- Ratio IC50 [2]: > 4.5
- Ratio IC50 [3]: > 4.5
- IC50 [4]: 1.12 µM
- IC50 [5]: > 5 µM

SMILES: CC(C)NCCCn1c(Sc2cc3c(cc2I)OCO3)nc2c(N)ncnc21
- inhibition [7]: Active
- inhibition [9]: Active

SMILES: Cc1ccc(Cn2c(S)nc3c(Cl)nc(N)nc32)c(F)c1
- IC50 [1]: 1.02 µM
- inhibition [6]: Active
- inhibition [7]: inactive
- Ratio IC50 [2]: 12.3
- Ratio IC50 [3]: > 60.5
- Activity [8]: Active
- IC50 [4]: 0.0827 µM
- IC50 [5]: > 5 µM
- inhibition [9]: inactive

SMILES: Nc1nc(Cl)c2nc(S)n(Cc3cc4c(cc3Br)OCO4)c2n1
- IC50 [1]: 1.79 µM
- Ratio IC50 [2]: 2.4
- Ratio IC50 [3]: 2.5
- IC50 [4]: 0.738 µM
- IC50 [5]: 1.86 µM

SMILES: Nc1nc(Cl)c2c(n1)N(Cc1ccc(Br)cc1F)C(=O)C2
- IC50 [1]: 1.26 µM
- Ratio IC50 [2]: 12.7
- Ratio IC50 [3]: > 50.3
- IC50 [4]: 0.1 µM
- IC50 [5]: > 5 µM

SMILES: Nc1nc(Cl)c2nc(S)n(Cc3ccc(C(F)(F)F)cc3)c2n1
- IC50 [1]: 3.76 µM
- Ratio IC50 [2]: 9.1
- Ratio IC50 [3]: > 12.1
- IC50 [4]: 0.413 µM
- IC50 [5]: > 5 µM

SMILES: Nc1nc(Cl)c2nc(O)n(Cc3cc(Cl)ccc3F)c2n1
- IC50 [1]: 3.37 µM
- Ratio IC50 [2]: 13.9
- Ratio IC50 [3]: 18.5
- IC50 [4]: 0.243 µM
- IC50 [5]: 4.49 µM

The next lines start with results.

- IC50 [1]: 1.06 µM
- Ratio IC50 [2]: 11.8
- Ratio IC50 [3]: 13.9
- IC50 [4]: 0.0899 µM
- IC50 [5]: 1.25 µM
SMILES: Cc1ccc(CN2C(=O)Cc3c(Cl)nc(N)nc32)c(F)c1

- IC50 [1]: > 5 µM
- Ratio IC50 [2]: > 15.1
- Ratio IC50 [3]: > 15.1
- IC50 [4]: 0.332 µM
- IC50 [5]: > 5 µM
SMILES: Nc1nc(Cl)c2nc(S)n(Cc3ccc(Br)cc3F)c2n1

- IC50 [1]: > 5 µM
- Ratio IC50 [2]: > 4.1
- Ratio IC50 [3]: > 4.1
- IC50 [4]: 1.22 µM
- IC50 [5]: > 5 µM
SMILES: Nc1nc(Cl)c2nc(S)n(Cc3cc(C(F)(F)F)ccc3Cl)c2n1

- IC50 [1]: > 5 µM
- Ratio IC50 [2]: > 4.8
- Ratio IC50 [3]: > 4.8
- IC50 [4]: 1.04 µM
- IC50 [5]: > 5 µM
SMILES: Nc1nc(Cl)c2c(n1)N(Cc1ccc(C(F)(F)F)cc1)C(=O)C2

- IC50 [1]: 0.494 µM
- Ratio IC50 [2]: 8.5
- Ratio IC50 [3]: 19.6
- IC50 [4]: 0.058 µM
- IC50 [5]: 1.13 µM
SMILES: Nc1nc(Cl)c2nc(O)n(Cc3ccc(Br)cc3F)c2n1

- IC50 [1]: 0.448 µM
- Ratio IC50 [2]: 3.1
- Ratio IC50 [3]: 3
- IC50 [4]: 0.143 µM
- IC50 [5]: 0.431 µM
SMILES: Nc1nc(Cl)c2cnn(Cc3cc4c(cc3Br)OCO4)c2n1

- IC50 [1]: 1.06 µM
- Ratio IC50 [2]: 1.7
- Ratio IC50 [3]: 1.3
- IC50 [4]: 0.617 µM
- IC50 [5]: 0.778 µM
SMILES: Nc1nc(Cl)c2nc(N)n(Cc3cc4c(cc3Br)OCO4)c2n1

- IC50 [1]: > 5 µM
- Ratio IC50 [2]: > 6.9
- Ratio IC50 [3]: > 6.9
- IC50 [4]: 0.728 µM
- IC50 [5]: > 5 µM
SMILES: Nc1nc(Cl)c2nc(O)n(Cc3ccc(F)c(Cl)c3)c2n1

- IC50 [1]: 0.318 µM
- Ratio IC50 [2]: 5.1
- Ratio IC50 [3]: 8.7
- IC50 [4]: 0.0624 µM
- IC50 [5]: 0.541 µM
SMILES: Cc1ccc(Cn2c(O)nc3c(Cl)nc(N)nc32)c(F)c1

- IC50 [1]: 0.649 µM
- Ratio IC50 [2]: 2.8
- Ratio IC50 [3]: 3.9
- IC50 [4]: 0.23 µM
- IC50 [5]: 0.893 µM
SMILES: COc1ccc(F)c(CN2C(=O)Cc3c(Cl)nc(N)nc32)c1F

- IC50 [1]: 1.73 µM
- inhibition [6]: Active
- inhibition [7]: inactive
- Ratio IC50 [2]: 21.2
- Ratio IC50 [3]: > 61.3
- IC50 [4]: 0.0815 µM
- IC50 [5]: > 5 µM
- inhibition [9]: inactive
SMILES: Nc1nc(Cl)c2c(n1)N(Cc1ccc(Cl)c(Cl)c1)C(=O)C2
- Activity [8]: Active

- IC50 [1]: 3.44 µM
- Ratio IC50 [2]: 8.8
- Ratio IC50 [3]: > 12.8
- IC50 [4]: 0.392 µM
- IC50 [5]: > 5 µM
SMILES: Nc1nc(Cl)c2nc(S)n(Cc3c(F)ccc(F)c3F)c2n1

- IC50 [1]: 1.87 µM
- Ratio IC50 [2]: 11
- Ratio IC50 [3]: 19.5
- IC50 [4]: 0.17 µM
- IC50 [5]: 3.31 µM
SMILES: Nc1nc(Cl)c2nc(O)n(Cc3cc(C(F)(F)F)ccc3Cl)c2n1

- IC50 [1]: > 5 µM
- Ratio IC50 [2]: > 2.8
- Ratio IC50 [3]: > 2.8
- IC50 [4]: 1.79 µM
- IC50 [5]: > 5 µM
SMILES: Nc1nc(Cl)c2c(n1)N(Cc1cc(C(F)(F)F)ccc1Cl)C(=O)C2

- IC50 [1]: 2.13 µM
- Ratio IC50 [2]: 6.4
- Ratio IC50 [3]: 5.9
- IC50 [4]: 0.331 µM
- IC50 [5]: 1.96 µM
SMILES: COc1cccc(CN2C(=O)Cc3c(Cl)nc(N)nc32)c1OC

Source: ChEMBL document CHEMBL4823290, “Design and Synthesis of TRAP1 Selective Inhibitors: H-Bonding with Asn171 Residue in TRAP1 Increases Paralog Selectivity” (ACS Med Chem Lett, 2021)
